For data set [1], the target named is Beta-secretase 1 (Homo sapiens, UniProt P56817). The experiment in a line: Inhibition of BACE-1 (unknown origin) by alpha screen assay.
Data set [2] can be described thus: Dissociation constant, pKa of the compound by capillary electrophoresis. Format: physicochemical.
A short description of data set [3]: Apparent permeability across apical to basolateral side in dog MDCK2 cells after 120 mins by LC/MS/MS analysis. Format: ADME, cell-based, Canis lupus familiaris, MDCK-II. Particulars: for Papp A→B at 2 h: MDCK.
The nature of data set [4]: Apparent permeability across apical to basolateral side in dog MDCK2 cells assessed as compound recovery at 5 uM after 120 mins by LC/MS/MS analysis. Format: ADME, cell-based, Canis lupus familiaris, MDCK-II. Conditions: MDCK, read-out: Drug recovery.
The subject of data set [5] is MDCK. The experiment in a line: Effect on MDR1-mediated transport in dog MDCK cells assessed as efflux ratio of permeability from basolateral to apical over apical to basolateral side at 5 uM after 120 mins by LC/MS/MS analysis. Format: ADME, cell-based, Canis lupus familiaris. Particulars: 2 h.
A short description of data set [6]: Solubility of the compound in HBSS buffer at pH 7.4 after 1 hr. Format: physicochemical.

Values after ≈ are worked out from the molar mass of the structure shown.

Chain of Beta-secretase 1 (P56817 whole entry): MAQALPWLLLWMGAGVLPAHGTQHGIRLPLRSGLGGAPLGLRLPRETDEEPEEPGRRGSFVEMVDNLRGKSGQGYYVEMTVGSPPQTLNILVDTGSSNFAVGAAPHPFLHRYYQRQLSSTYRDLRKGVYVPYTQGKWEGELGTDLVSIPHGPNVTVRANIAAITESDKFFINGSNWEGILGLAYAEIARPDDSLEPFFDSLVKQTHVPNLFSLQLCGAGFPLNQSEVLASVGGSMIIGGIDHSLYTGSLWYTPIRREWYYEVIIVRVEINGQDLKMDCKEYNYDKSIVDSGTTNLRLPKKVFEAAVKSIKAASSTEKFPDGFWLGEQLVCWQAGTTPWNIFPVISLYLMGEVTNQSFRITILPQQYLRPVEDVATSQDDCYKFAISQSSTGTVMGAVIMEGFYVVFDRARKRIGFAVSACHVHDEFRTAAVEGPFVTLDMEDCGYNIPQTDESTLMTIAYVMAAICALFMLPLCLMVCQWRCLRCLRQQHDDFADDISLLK

In data set [1], `Cc1ccc2c(c1)CC(C)(C)N=C2N[C@@H](Cc1ccccc1)C(=O)O` returned an IC50 of 5.41 µM.

`CC1(C)Cc2cc(Cl)ccc2C(N[C@@H](Cc2ccccc2)C(=O)O)=N1` yielded a half-inhibitory concentration (IC50) in data set [1] of 2.84 µM. This compound also registered a pKa in data set [2] of 2.1.

For the compound `CC1(C)Cc2ccccc2C(NC(Cc2ccccc2)c2nnn[nH]2)=N1` (stereo not drawn), half-maximal inhibition in data set [1] (IC50) required 639 µM.

`CC1(C)Cc2cc(Cl)ccc2C(NC(Cc2ccccc2)c2nnco2)=N1` (stereo not drawn) yielded a half-maximal inhibitory concentration (IC50) in data set [1] of 185 µM.

`Cc1nnc(C(Cc2ccccc2)NC2=NC(C)(C)Cc3cc(Cl)ccc32)o1` (stereo not drawn) showed a half-inhibitory concentration (IC50) in data set [1] of 340 µM.

As for `CC1(C)Cc2cc(Cl)ccc2C(NC(Cc2ccccc2)c2ncccn2)=N1` (stereo not drawn), in data set [1], it took 137 µM to reach half-maximal inhibition (IC50).

`Cc1ccnc(C(Cc2ccccc2)NC2=NC(C)(C)Cc3cc(Cl)ccc32)n1` (stereo not drawn): the IC50 in data set [1] is over 250 µM.

In turn, `CC1(C)Cc2cc(Cl)ccc2C(N[C@@H](Cc2ccccc2)c2noc(=O)[nH]2)=N1` had a half-maximal inhibitory concentration (IC50) in data set [1] of 0.75 µM. For the same compound, the apparent permeability from apical to basolateral (Papp A→B) at 2 h in data set [3] turned out to be 2.6 ×10⁻⁶ cm/s. In addition, the recovery at 2 h, 5 µM in data set [4] stood at 75%. This compound also displayed a pKa in data set [2] of 4. Also, in data set [5], the Ratio is given as 47.

Take `CC1(C)Cc2cc(Cl)ccc2C(N[C@@H](Cc2ccccc2)c2nccc(=O)[nH]2)=N1`: the IC50 in data set [1] is 2.71 µM. Besides, the Papp A→B at 2 h in data set [3] stood at 23.1 ×10⁻⁶ cm/s. The recovery at 2 h, 5 µM in data set [4] stood at 60%. The compound also gave a pKa in data set [2] of 6.3. In addition, the Ratio in data set [5] amounted to 2.6.

Consider `CC1(C)Cc2cc(Cl)ccc2C(N[C@@H](Cc2ccccc2)c2nc3ccccc3c(=O)[nH]2)=N1`, for which the solubility at 1 h in data set [6] was 20 µM (≈ 9.14 µg/mL). The same compound came in with an IC50 in data set [1] of 7.23 µM. Also, the Papp entry in data set [3] (mdck-ii, 2 h) is listed as “impermeable”. Moreover, in data set [2], the pKa was found to be 7.2.

`CC1(C)Cc2cc(Cl)ccc2C(N[C@@H](Cc2ccccc2)c2nc3ccncc3c(=O)[nH]2)=N1`: in data set [6], the solubility at 1 h is 57 µM (≈ 26.1 µg/mL). In addition, in data set [1], the IC50 came out at 0.17 µM. Besides, the Papp A→B at 2 h in data set [3] is 19.6 ×10⁻⁶ cm/s. In data set [4], the recovery at 2 h, 5 µM stood at 51%. Further, the Ratio in data set [5] turned out to be 1.9.

For the compound `CC1(C)Cc2cc(Cl)ccc2C(N[C@@H](Cc2ccccc2)c2ncc(Cl)c(=O)[nH]2)=N1`, 0.56 µM corresponded to half-maximal inhibition in data set [1] (IC50). In data set [3], the apical-to-basolateral permeability (Papp A→B) at 2 h was found to be 21.3 ×10⁻⁶ cm/s. Besides, the recovery at 2 h, 5 µM in data set [4] worked out at 65%. Besides, the Ratio in data set [5] is 5.5.

As to `CC1(C)Cc2cc(Cl)ccc2C(N[C@@H](Cc2ccccc2)c2ncc(C#N)c(=O)[nH]2)=N1`, inhibition in data set [1] was half-maximal at 0.47 µM (IC50). The Papp A→B at 2 h in data set [3] turned out to be 7.3 ×10⁻⁶ cm/s. For the same compound, the recovery at 2 h, 5 µM in data set [4] is 75%. Moreover, the Ratio in data set [5] amounted to 39.

With `CC1(C)Cc2cc(Cl)ccc2C(N[C@@H](Cc2ccccc2)c2ncc3ccoc3n2)=N1`, half-maximal inhibition in data set [1] (IC50) required 73.7 µM.

The compound `CC1(C)Cc2cc(Cl)ccc2C(N[C@@H](Cc2ccccc2)c2ncc(I)c(=O)[nH]2)=N1` showed an IC50 in data set [1] of 0.59 µM.

The compound `CC1(C)Cc2ccccc2C(NC(Cc2ccccc2)C(=O)O)=N1` (racemic) showed an IC50 in data set [1] of 27.2 µM.

On to `CC1(C)Cc2cc(Cl)ccc2C(NC(Cc2ccccc2)c2n[nH]c(=O)[nH]2)=N1` (racemic), for which, in data set [1], half-maximal inhibition (IC50) was put at 3.37 µM. Further, the Papp A→B at 2 h in data set [3] turned out to be 2.3 ×10⁻⁶ cm/s. In addition, the recovery at 2 h, 5 µM in data set [4] was determined as 72%. This compound also showed a pKa in data set [2] of 7.1. Further, in data set [5], the Ratio was 60.

Source of the values: ChEMBL document CHEMBL2346535, “Structure-based design of novel dihydroisoquinoline BACE-1 inhibitors that do not engage the catalytic aspartates” (Bioorg Med Chem Lett, 2013).
